From patent EP4570802A1, “SALT TYPE AND CRYSTAL FORM OF BENZAZEPINE FUSED RING COMPOUND AND USE THEREOF” (SHANGHAI JEYOU PHARMACEUTICAL CO., LTD., priority 2022, dated 2024)
≈ marks a conversion by molar mass, not a printed value. Where a name gives a salt, the structure may show the parent alone. Read-outs that look alike come from different tables or passages of the source.

What was measured:
Format in all cases: physicochemical
[1] = Solubility test in biological media (dynamic solubility in FaSSIF, FeSSIF, FaSSGF; pH of the 24-hour supernatant; XRPD of remaining solid); conditions: for Final pH: 24-hour supernatant; for Solubility (mg/mL) 0.5 h: 30 min; for Solubility (mg/mL) 2h: 120 min; for Solubility (mg/mL) 24 h: 1440 min; for XRPD for remaining solid: remaining solid after 24 hours; for solubility at 0.5 h: read-out: Solubility (mg/mL) 0.5 h; for solubility at 24 h: read-out: Solubility (mg/mL) 24 h; for solubility at 2 h: read-out: Solubility (mg/mL) 2h
Procedure: Samples of different crystal forms were added to biological media and shaken at a constant temperature of 37°C for 24 hours, followed by sampling at 0.5 hours, 2 hours, and 24 hours, respectively, and the sampled solution was filtered using a 0.22 µm hydrophilic filter membrane. Some of the samples with higher concentrations were appropriately diluted with a diluent, and the signal peak area of the solution was measured by HPLC. Finally, the concentration of the compound in the solution was calculated based on the peak area, the HPLC standard curve of the starting material, and the dilution factor. In addition, the 24-hour supernatant was tested for pH, and the remaining solid was subjected to XRPD testing.

[2] = Stability study (solid state, XRPD characterization after 7 days and 15 days); conditions: for Results after 7 days: XRPD characterization after 7 days; for Results after 15 days: XRPD characterization after 15 days
Procedure: Approximately 20 mg of sample was weighed into a weighing bottle and exposed to high temperature (60°C), high humidity (25°C/92.5% RH), light (25°C/4500 Lux), and accelerated (40°C/75% RH) conditions, followed by sampling for XRPD characterization after 7 days and 15 days.
Samples were taken for XRPD characterization after 7 days and 15 days. 62 to 65. […]

[3] = Dynamic vapor sorption analysis (DVS)
Procedure: Dynamic vapor sorption analysis was performed using DVS Intrinsic (SMS, UK). The test was performed in gradient mode with a humidity change of 50%-95%-0%-50%, and 10% humidity change per gradient in the range of 0% to 90%. The gradient endpoint was determined by dm/dt, and was defined as when dm/dt was less than 0.002% and maintained for 10 minutes. After the test was completed, the sample was analyzed by XRPD to confirm whether the solid morphology had changed.

[4] = FaSSGF, listed as Crystal form N
[5] = FaSSGF, pH 1.6, 37°C, listed as Crystal form N
[6] = FaSSIF, listed as Crystal form N
[7] = FaSSIF, pH 6.5, 37°C, listed as Crystal form N
[8] = FeSSIF, listed as Crystal form N
[9] = FeSSIF, pH 5.0-5.1, 37°C, listed as Crystal form N
[10] = Water, listed as Crystal form N
[11] = FaSSGF, listed as Crystal form C of fumarate
[12] = FaSSIF, listed as Crystal form C of fumarate
[13] = FeSSIF, listed as Crystal form C of fumarate
[14] = FaSSGF, listed as Crystal form S
[15] = FaSSGF, pH 1.6, 37°C, listed as Crystal form S
[16] = FaSSIF, listed as Crystal form S
[17] = FaSSIF, pH 6.5, 37°C, listed as Crystal form S
[18] = FeSSIF, listed as Crystal form S
[19] = FeSSIF, pH 5.0-5.1, 37°C, listed as Crystal form S
[20] = Water, listed as Crystal form S
[21] = FaSSGF, listed as Crystal form A of maleate
[22] = FaSSGF, pH 1.6, 37°C, listed as Crystal form A of maleate
[23] = FaSSIF, listed as Crystal form A of maleate
[24] = FaSSIF, pH 6.5, 37°C, listed as Crystal form A of maleate
[25] = FeSSIF, listed as Crystal form A of maleate
[26] = FeSSIF, pH 5.0-5.1, 37°C, listed as Crystal form A of maleate

O=C(Nc1ccc(C(=O)N2CC[C@@H]3CCN[C@H]3c3cc(Cl)ccc32)cn1)c1ccccc1C(F)(F)F [crystal form N]
Final pH [1, 4]: 2.0 | Solubility (mg/mL) 0.5 h [1, 5]: > 7.61 mg/mL | Solubility (mg/mL) 2h [1, 5]: > 7.89 mg/mL | Solubility (mg/mL) 24 h [1, 5]: > 7.98 mg/mL | XRPD for remaining solid [1, 4]: No solid | Final pH [1, 6]: 6.5 | Solubility (mg/mL) 0.5 h [1, 7]: 0.06 mg/mL (≈ 117 µM) | Solubility (mg/mL) 2h [1, 7]: 0.07 mg/mL (≈ 136 µM) | Solubility (mg/mL) 24 h [1, 7]: 0.08 mg/mL (≈ 155 µM) | XRPD for remaining solid [1, 6]: Crystal form N | Final pH [1, 8]: 5.1 | Solubility (mg/mL) 0.5 h [1, 9]: 0.80 mg/mL (≈ 1550 µM) | Solubility (mg/mL) 2h [1, 9]: 0.97 mg/mL (≈ 1880 µM) | Solubility (mg/mL) 24 h [1, 9]: 0.94 mg/mL (≈ 1830 µM) | XRPD for remaining solid [1, 8]: Crystal form N | Final pH [1, 10]: 7.5 | Solubility (mg/mL) 2h ([1]; Water, 37°C, listed as Crystal form N): 0.011 mg/mL (≈ 21.4 µM) | XRPD for remaining solid [1, 10]: Crystal form N | solubility at 0.5 h ([1]; water, 37°C): 0.004 mg/mL (≈ 7.77 µM) | solubility at 24 h ([1]; water, 37°C): 0.004 mg/mL (≈ 7.77 µM) | Results after 7 days ([2]; Accelerated, 40°C/75% RH): No change | Results after 15 days ([2]; Accelerated, 40°C/75% RH): No change | Results after 7 days ([2]; High humidity, 25°C/92.5% RH): No change | Results after 15 days ([2]; High humidity, 25°C/92.5% RH): No change | Results after 7 days ([2]; Light, 25°C/4500 Lux): No change | Results after 15 days ([2]; Light, 25°C/4500 Lux): No change

O=C(Nc1ccc(C(=O)N2CC[C@@H]3CCN[C@H]3c3cc(Cl)ccc32)cn1)c1ccccc1C(F)(F)F [crystal form C of fumarate]
Final pH [1, 11]: 1.7 | solubility at 0.5 h ([1]; FaSSGF, pH 1.6, 37°C): 0.65 mg/mL | solubility at 2 h ([1]; FaSSGF, pH 1.6, 37°C): 0.7 mg/mL | solubility at 24 h ([1]; FaSSGF, pH 1.6, 37°C): 0.71 mg/mL | XRPD for remaining solid [1, 11]: Obvious change | Final pH [1, 12]: 6.1 | solubility at 0.5 h ([1]; FaSSIF, pH 6.5, 37°C): 0.38 mg/mL | solubility at 2 h ([1]; FaSSIF, pH 6.5, 37°C): 0.35 mg/mL | solubility at 24 h ([1]; FaSSIF, pH 6.5, 37°C): 0.28 mg/mL | XRPD for remaining solid [1, 12]: Crystal form C of fumarate + new peak | Final pH [1, 13]: 5.0 | solubility at 0.5 h ([1]; FeSSIF, pH 5.0-5.1, 37°C): 0.66 mg/mL | solubility at 2 h ([1]; FeSSIF, pH 5.0-5.1, 37°C): 0.74 mg/mL | solubility at 24 h ([1]; FeSSIF, pH 5.0-5.1, 37°C): 0.68 mg/mL | XRPD for remaining solid [1, 13]: Crystal form C of fumarate + new peak

O=C(Nc1ccc(C(=O)N2CC[C@@H]3CCN[C@H]3c3cc(Cl)ccc32)cn1)c1ccccc1C(F)(F)F [crystal form S]
Final pH [1, 14]: 2.0 | Solubility (mg/mL) 0.5 h [1, 15]: > 7.19 mg/mL | Solubility (mg/mL) 2h [1, 15]: > 7.35 mg/mL | Solubility (mg/mL) 24 h [1, 15]: 2.15 mg/mL (≈ 4180 µM) | XRPD for remaining solid [1, 14]: Amorphous* | Final pH [1, 16]: 6.5 | Solubility (mg/mL) 0.5 h [1, 17]: 0.03 mg/mL (≈ 58.3 µM) | Solubility (mg/mL) 2h [1, 17]: 0.04 mg/mL (≈ 77.7 µM) | Solubility (mg/mL) 24 h [1, 17]: 0.04 mg/mL (≈ 77.7 µM) | XRPD for remaining solid [1, 16]: Crystal form S | Final pH [1, 18]: 5.1 | Solubility (mg/mL) 0.5 h [1, 19]: 0.40 mg/mL (≈ 777 µM) | Solubility (mg/mL) 2h [1, 19]: 0.44 mg/mL (≈ 854 µM) | Solubility (mg/mL) 24 h [1, 19]: 0.43 mg/mL (≈ 835 µM) | XRPD for remaining solid [1, 18]: Crystal form S | Final pH [1, 20]: 7.4 | Solubility (mg/mL) 2h ([1]; Water, 37°C, listed as Crystal form S): 0.001 mg/mL (≈ 1.94 µM) | XRPD for remaining solid [1, 20]: Crystal form S | Results after 7 days ([2]; High temperature, 60°C): No change | Results after 15 days ([2]; High temperature, 60°C): No change

O=C(Nc1ccc(C(=O)N2CC[C@@H]3CCN[C@H]3c3cc(Cl)ccc32)cn1)c1ccccc1C(F)(F)F [crystal form A of maleate]
Final pH [1, 21]: 1.7 | Solubility (mg/mL) 0.5 h [1, 22]: 1.44 mg/mL | Solubility (mg/mL) 2h [1, 22]: 1.43 mg/mL | Solubility (mg/mL) 24 h [1, 22]: 1.02 mg/mL | XRPD for remaining solid [1, 21]: Crystal form A of maleate + new peak | Final pH [1, 23]: 6.1 | Solubility (mg/mL) 0.5 h [1, 24]: 0.66 mg/mL | Solubility (mg/mL) 2h [1, 24]: 0.69 mg/mL | Solubility (mg/mL) 24 h [1, 24]: 0.57 mg/mL | XRPD for remaining solid [1, 23]: Obvious change | Final pH [1, 25]: 5.0 | Solubility (mg/mL) 0.5 h [1, 26]: 1.08 mg/mL | Solubility (mg/mL) 2h [1, 26]: 1.28 mg/mL | Solubility (mg/mL) 24 h [1, 26]: 0.31 mg/mL | XRPD for remaining solid [1, 25]: Obvious change | weight loss ([3]; DVS, at 0% RH): 0.24% | weight gain ([3]; DVS, at 80% RH): 0.09% | weight gain ([3]; DVS, at 95% RH): 0.23% | hygroscopicity ([3]; conclusion from DVS): almost no hygroscopicity | XRPD after DVS testing ([3]; solid form after DVS testing): no morphological change | stability (crystal transformation by XRPD) ([2]; high temperature (60°C), high humidity (25°C/92.5% RH), light (25°C/4500 Lux) and accelerated (40°C/75% RH) conditions, 15 days): stable
